Test results reported in US20090148886A1, “METHODS OF IDENTIFYING COMPOUNDS THAT DECREASE INTRAOCULAR PRESSURE” (The Arizona Board of Regents on behalf of the University of …, priority 2007, published 2009).

Test system: C57BL/6 mice and Best2^+/+, Best2^+/−, Best2^−/− littermates
Experiment: IOP measurement by cannulation of the anterior chamber in control and drug-treated Best2 mice
Format: in vivo, mouse
Conditions: for Mean IOP: 10 μL of solution topically to each eye 2 hours before cannulation, mean ± SE
Description: IOP Measurements: IOP was measured in the mice by cannulation of the anterior chamber with Avertin® anesthesia (300 mg/kg injected intraperitoneally) as described in, e.g., Husain et al., Exp. Eye Res. 83:1453-1458, 2006; John et al., Invest. Ophthalmol. Vis. Sci. 38:249-253, 1997; Aihara et al., Invest. Ophthalmol. Vis. Sci. 44:5168-5173, 2003. In brief, the anterior chamber was cannulated with a borosilicate glass microneedle (1-mm outer diameter with a 50-μm inner diameter tip, beveled to 45°; Humagen, Charlottesville, Va.) filled with Hanks' balanced salt solution (HBSS) and connected to a pressure transducer (BLPR; World Precision Instruments, Sarasota, Fla.). The signal was amplified (Bridge8 amplifier; World Precision Instruments), converted from analog to digital (iWorx® model 108 converter; CB Sciences, Dover, N.H.), and recorded (LabScribe software ver. 1.6; CB Sciences, Dover, N.H.). IOP was recorded for a period of >90 seconds, and the IOP value determined from the average of each recording. […] All measurements were performed between 2 and 6 PM to avoid diurnal pressure variations. The apparatus was calibrated using a fluid reservoir the height of which could be adjusted to generate a series of known pressures. For experiments using timolol (0.5% solution; Bausch & Lomb, Tampa, Fla.) or brinzolamide (Azopt® 1% solution; Alcon, Fort Worth, Tex.), 10 μL of solution was administrated topically to each eye 2 hours before cannulation.

Structure (SMILES)	IOP after treatment compared with treated C57BL/6 or Best2^+/+ mice (Best2^+/+ (so in the source) and Best2^−/− mice, lower than in C57BL/6 or Best2^+/+ mice)	Mean IOP (Best2^+/+ mice)	Mean IOP (Best2^+/− mice)	Mean IOP (Best2^−/− mice)	Mean IOP (C57BL/6 mice)	Effect on IOP (in words) (all mice tested)	Effect on IOP (in words) (Best2^−/− mice)	Effect on IOP (in words) (C57BL/6 and Best2^+/+ mice, P<0.005)
CCN[C@H]1CN(CCCOC)S(=O)(=O)c2sc(S(N)(=O)=O)cc21 [Brinzolamide, brinzolamide]	approximately 1 mm Hg	10.08 ± 0.33 mm Hg	9.56 ± 0.37 mm Hg	9.34 ± 0.34 mm Hg	10.51 ± 0.51 mm Hg	effective in lowering IOP in all mice tested	–	–
CC(C)(C)NC[C@H](O)COc1nsnc1N1CCOCC1 [Timolol, timolol]	–	9.57 ± 0.22 mm Hg	9.48 ± 0.12 mm Hg	9.49 ± 0.18 mm Hg	10.53 ± 0.29 mm Hg	–	less effective in lowering IOP	lowered IOP significantly
